According to patent US9610292B2, “Uses for 4,17β-dihydroxyandrost-4-ene-3-one” (MaBel GmbH, priority 2006, dated 2017):

Tests used:
MCF-7 cells = assay: Inhibition of MCF-7 cell proliferation (counting of vital cells); format: cell-based, human; settings: 10^-7 M, 10^-8 M and 10^-9 M; cell counting after 3, 6 and 9 days; compared with DHT and control
Procedure: MCF-7 cells were grown in RPMI 1640 medium at 37° C. to a cell number of about 1*10^5 cells/ml. Then, in quadruple identical MCF-7 cell samples, there were added either dihydrotestosterone (DHT) or 4-hydroxytestosterone (4-OHT), to obtain different concentrations thereof, namely 10^−7 M, 10^−8 M or 10^−9 M, and further growth of cells were determined by counting of vital cells. During the course of incubation at 37° C., cell counting were performed after 3, 6 and 9 days. For control, growth of MCF-7 cells were determined without addition of an active agent.
The results on an inhibition of MCF-7 cell proliferation are shown in FIGS. 1A, 1B and 1C for the compound concentrations of 10^−7 M, 10^−8 M and 10^−9 M of either DHT or 4-OHT, respectively, and compared with the control.

[1] = test system: malign breast carcinoma (C. mammae); assay: Double blind clinical test, topical cream once a day for 3 months, patients with malign breast carcinoma; format: in vivo, human; settings: for Clinical Remission: daily topical cream, 3 months
Procedure: Double blind clinical tests were conducted with a group of 10 female patients. In this clinical testing, particular attention was paid to hormone receptor statuses of patients' target breast cancer tissue regarding progesterone receptor (PR) and in particular regarding estrogen receptor (ER); The cancers of the patients were assumed to be predominantly androgen receptor (AR) positive. Among this group, six patients had histologically ascertained malign breast carcinoma (C. mammae). […] In a sixth patient, the presence of a malign breast carcinoma was ascertained, but the amount of cancer tissue was too low to determine receptor status.
(§1) All 10 female patients were topically and locally treated using 4-hydroxytestosterone as active agent, by administering of a cream as described in Example 2 locally to target skin portions of the breasts. After continuing daily topical administration once a day during an administration period of 3 months, clinical investigations on therapeutic effects were performed.
The results of the 6 patients having malign breast carcinoma are shown in the following Table 1, together with the receptor status determined for patient nos. 1 to 5.

[2] = test system: normal or mastopathic breast tissue; assay: Double blind clinical test, topical cream, patients with non-malign disease states; format: in vivo, human; settings: 4 patients having non-malign disease states, topical administration
Procedure: as §1

## C[C@]12CC[C@H]3[C@@H](CCC4=C(O)C(=O)CC[C@@]43C)[C@@H]1CC[C@@H]2O [4-hydroxytestosterone, 4,17β-dihydroxyandrost-4-ene-3-one]
MCF-7 cells
  inhibitory effect on MCF-7 cell proliferation: significantly enhanced inhibitory effect
[1]; Patient # 1, ER 0, PR 0, Her2neu 0
  Clinical Remission: yes
[1]; Patient # 3, ER 0, PR 0, Her2neu 0
  Clinical Remission: yes
[1]; Patient # 6, receptor status unknown
  Clinical Remission: yes
[1]; clinical study overall, including ER negative cancers
  efficacy in shrinking cancerous tissues: excellent efficacy
[2]
  tissue reduction of normal or mastopathic appearing tissues: clear tendency for tissue reduction
